Assay results: ChEMBL document CHEMBL5223128, “Biphenyl-based small molecule inhibitors: Novel cancer immunotherapeutic agents targeting PD-1/PD-L1 interaction” (Bioorg Med Chem, 2022)

Target: T1, Programmed cell death protein 1/Programmed cell death 1 ligand 1 (Homo sapiens, UniProt Q9NZQ7)
Assay: Inhibition of human PD-1/PDL1 protein-protein interaction
Format: protein-complex assay

T1 sequence (Q15116 whole entry): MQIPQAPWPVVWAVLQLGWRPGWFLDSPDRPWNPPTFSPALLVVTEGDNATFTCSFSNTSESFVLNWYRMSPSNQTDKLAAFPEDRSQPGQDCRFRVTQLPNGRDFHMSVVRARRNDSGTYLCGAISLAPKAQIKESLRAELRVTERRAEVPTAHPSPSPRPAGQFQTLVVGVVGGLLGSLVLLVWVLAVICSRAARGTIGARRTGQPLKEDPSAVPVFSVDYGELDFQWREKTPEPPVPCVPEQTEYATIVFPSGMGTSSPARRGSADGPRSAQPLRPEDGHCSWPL
T1 sequence (Q9NZQ7 whole entry): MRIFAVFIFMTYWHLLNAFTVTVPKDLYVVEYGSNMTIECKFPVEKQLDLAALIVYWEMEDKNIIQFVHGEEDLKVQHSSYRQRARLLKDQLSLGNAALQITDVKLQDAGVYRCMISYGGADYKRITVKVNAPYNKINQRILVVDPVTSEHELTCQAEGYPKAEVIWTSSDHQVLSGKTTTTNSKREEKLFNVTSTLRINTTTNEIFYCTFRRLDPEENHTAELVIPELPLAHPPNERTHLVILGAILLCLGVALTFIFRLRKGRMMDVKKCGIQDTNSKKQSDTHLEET

With `COc1cc(OCc2cccc(-c3ccccc3)c2C)cc(OC)c1CCCC1CC(=O)N1` (configuration not stated) the IC50 was 18 nM.

Target: Programmed cell death 1 ligand 1 (Homo sapiens, UniProt Q9NZQ7)
Assay: Binding affinity to human PDL1 assessed as dissociation constant by MST method

Programmed cell death 1 ligand 1, sequence (Q9NZQ7 whole entry): as above

In the case of `Cc1c(-c2ccccc2)cccc1N1C(=O)c2cc(CN[C@H](C(=O)O)C(C)O)c(OCc3cccc(C#N)c3)cc2C1=O` (some centres not stated), the Kd is reported as 24.4 nM.

Target: T1, Programmed cell death protein 1/Programmed cell death 1 ligand 1
Assay: Inhibition of human PD-1/PDL1 protein-protein interaction by luminescence proximity homogeneous assay
Format: protein-complex assay

Work on `Cc1c(COc2cc(OCc3ccc(OC(F)(F)F)cc3)c(N3CCCCC3C(=O)O)cc2Cl)cccc1-c1ccccc1` (configuration not stated) yielded an IC50 of 1500 nM.

Target: Programmed cell death protein 1 (Homo sapiens, UniProt Q15116)
Assay: Binding affinity to human PD-1 assessed as dissociation constant by SPR assay

Programmed cell death protein 1, sequence (Q15116 whole entry): as the sequence (Q15116 whole entry) above

Molecule `O=C(O)[C@@H](CO)NCc1cc(Cl)c(OCc2cccc(-c3ccccc3)c2Br)cc1OCc1ccc2nonc2c1` has a Kd of 3.34 nM.

Target: T1, Programmed cell death protein 1/Programmed cell death 1 ligand 1
Assay: Inhibition of human PD-1/PDL1 protein-protein interaction by HTRF assay
Format: protein-complex assay

`N#Cc1c(NC(=O)c2nc3c(s2)CNCC3)cccc1-c1ccc2c(c1)OCC2` and `N#Cc1c(NC(=O)c2nc3c(s2)CNCC3)cccc1-c1ccc2c(c1)OCCO2` cannot be ordered by IC50: at most 100 nM for the first, at most 100 nM for the second.

`Cc1c(-c2ccccc2)cccc1-n1cc2c(n1)CNCC2` and `Cc1c(-c2ccccc2)cccc1-c1nc2c(o1)CCNC2` cannot be ordered by IC50: at most 100 nM for the first, at most 100 nM for the second.

`Cc1cc(C(=O)Nc2cccc(-c3ccccc3)c2C)ncc1CNCCO` and `N#Cc1c(NC(=O)c2ccc(CNCCO)cn2)cccc1-c1ccccc1` cannot be ordered by IC50: at most 10 nM for the first, at most 10 nM for the second.

`COc1cc2oc(-c3cccc(-c4ccccc4)c3C)nc2cc1CNCCO` and `Cc1c(-c2ccccc2)cccc1-c1nc2cc(CNCCO)c(OCC#N)cc2o1` cannot be ordered by IC50: at most 10 nM for the first, at most 10 nM for the second.

`Cc1c(-c2ccccc2)cccc1-c1nc2c(s1)CNCC2` and `Cc1c(-c2ccccc2)cccc1-c1nc2c(s1)CN(C)CC2` cannot be ordered by IC50: at most 100 nM for the first, at most 100 nM for the second.

`Cc1c(-c2ccccc2)cccc1-c1nc2cc(CNCCO)ccc2o1` and `Cc1c(-c2ccccc2)cccc1-c1nc2cc(CNCCO)cc(C)c2o1` cannot be ordered by IC50: at most 10 nM for the first, at most 10 nM for the second.

`Cc1c(-c2ccccc2)cccc1-c1cn2nc(CNCCO)cnc2n1` and `Cc1c(-c2ccccc2)cccc1-c1cn2cc(CNCCO)ncc2n1` cannot be ordered by IC50: at most 100 nM for the first, at most 100 nM for the second.

`Cc1c(Nc2nccc3c(CN4CCCCC4C(=O)O)ccnc23)cccc1-c1ccccc1` (configuration not stated) and `Cc1cc(C(=O)Nc2cccc(-c3ccccc3)c2C)ncc1CN1CCCC[C@H]1C(=O)O` cannot be ordered by IC50: at most 10 nM for the first, at most 10 nM for the second.

`Cc1c(-c2ccccc2)cccc1-c1nc2c(o1)CNCC2` and `Cc1c(-c2ccccc2)cccc1-c1nc2c(o1)CCN(C)C2` cannot be ordered by IC50: at most 100 nM for the first, at most 100 nM for the second.

`Cc1c(-c2ccccc2)cccc1-c1nc2cc(CN3CCCC[C@H]3C(=O)O)c(OCCCC#N)cc2o1` and `Cc1c(-c2ccccc2)cccc1-c1nc2cc(CN3CCCC[C@H]3C(=O)O)c(OCC#N)cc2o1` cannot be ordered by IC50: at most 10 nM for the first, at most 10 nM for the second.

`Cc1c(NC(=O)c2nc3c(s2)CNCC3)cccc1-c1cccc2[nH]ncc12` and `Cc1c(NC(=O)c2nc3c(s2)CNCC3)cccc1-c1cccc2c1cnn2C` cannot be ordered by IC50: at most 100 nM for the first, at most 100 nM for the second.

First: COc1cc(OCc2cccc(-c3ccccc3)c2C)cc(OC)c1CCCC1CC(=O)N1 (configuration not stated)
Second: Cc1c(COc2cc(OCc3ccc(OC(F)(F)F)cc3)c(N3CCCCC3C(=O)O)cc2Cl)cccc1-c1ccccc1 (configuration not stated)
The IC50 of the first is 2.6-fold lower: 22 nM for the first, 56.6 nM for the second. The first is the more potent here.

`Cc1c(NC(=O)c2nc3c(s2)CNCC3)cccc1-c1ccccc1` and `O=C(Nc1cccc(-c2ccccc2)c1Cl)c1nc2c(s1)CNCC2` cannot be ordered by IC50: at most 100 nM for the first, at most 100 nM for the second.

`Cc1c(C2=CCCCC2)cccc1-c1nc2c(s1)CNCC2` and `N#Cc1c(NC(=O)c2nc3c(s2)CNCC3)cccc1C1=CCCCC1` cannot be ordered by IC50: at most 100 nM for the first, at most 100 nM for the second.

`Cn1c(C(=O)Nc2cccc(-c3ccc4c(c3)OCCO4)c2C#N)nc2c1CCNC2` and `Cn1c(C(=O)Nc2cccc(-c3ccc4c(c3)OCCO4)c2C#N)nc2c1CCN(CCO)C2` cannot be ordered by IC50: at most 100 nM for the first, at most 100 nM for the second.

`Cc1c(Nc2nccc3cc(CNCCO)cnc23)cccc1C1=CCCCC1` and `N#Cc1c(Nc2nccc3nc(CNCCO)cnc23)cccc1C1=CCCCC1` cannot be ordered by IC50: at most 10 nM for the first, at most 10 nM for the second.

`Cc1c(-c2ccccc2)cccc1-c1nc2ccc(CNCCO)cn2n1` and `Cc1c(-c2ccccc2)cccc1-c1nc2cc(CNCCO)ccn2n1` cannot be ordered by IC50: at most 100 nM for the first, at most 100 nM for the second.

`COc1cccc(-c2cccc(NC(=O)c3nc4c(s3)CNCC4)c2C)c1F` and `COc1cccc(-c2cccc(NC(=O)c3nc4c(s3)CNCC4)c2Cl)c1F` cannot be ordered by IC50: at most 100 nM for the first, at most 100 nM for the second.

`Cn1cnc2c(-c3cccc(NC(=O)c4ccc(CNCCO)cn4)c3C#N)cccc21` and `N#Cc1c(NC(=O)c2ccc(CNCCO)cn2)cccc1-c1ccc2c(c1)OCCO2` cannot be ordered by IC50: at most 10 nM for the first, at most 10 nM for the second.

`N#Cc1c(Nc2nccc3cc(CNCCO)cnc23)cccc1-c1ccccc1` and `Cc1c(Nc2nccc3cc(CNCCO)cnc23)cccc1-c1ccccc1` cannot be ordered by IC50: at most 10 nM for the first, at most 10 nM for the second.

`Cc1c(NC(=O)c2nc3c(s2)CNCC3)cc(F)cc1-c1ccc2c(c1)OCCO2` and `Cc1c(NC(=O)c2nc3c(s2)CNCC3)cccc1-c1ccc2c(c1)OCCO2` cannot be ordered by IC50: at most 100 nM for the first, at most 100 nM for the second.

`N#Cc1c(NC(=O)c2nc3c(s2)CNCC3)cccc1-c1c(F)cccc1F` and `N#Cc1c(NC(=O)c2nc3c(s2)CNCC3)cccc1-c1ccccc1F` cannot be ordered by IC50: at most 100 nM for the first, at most 100 nM for the second.

`CCOc1cccc(-c2cccc(-c3nc4c(s3)CNCC4)c2C)c1` and `COc1cccc(-c2cccc(-c3nc4c(s3)CNCC4)c2C)c1` cannot be ordered by IC50: at most 100 nM for the first, at most 100 nM for the second.

`O=C(Nc1cccc(-c2ccc3c(c2)OCCO3)c1Cl)c1nc2c(s1)CNCC2` and `N#Cc1c(-c2ccc3c(c2)OCCO3)cccc1-c1nc2c(s1)CNCC2` cannot be ordered by IC50: at most 100 nM for the first, at most 100 nM for the second.

`N#Cc1c(Nc2nccc3cc(CNCCO)cnc23)cccc1-c1ccc2c(c1)OCCO2` and `Cc1c(Nc2nccc3cc(CNCCO)cnc23)cccc1-c1ccc2c(c1)OCCO2` cannot be ordered by IC50: at most 10 nM for the first, at most 10 nM for the second.

`Cc1c(-c2cccc(C(N)=O)c2)cccc1-c1nc2c(s1)CNCC2` and `Cc1c(-c2cccc(CC(N)=O)c2)cccc1-c1nc2c(s1)CNCC2` cannot be ordered by IC50: at most 100 nM for the first, at most 100 nM for the second.

`COc1cc(OC)c(F)c(-c2cccc(-c3nc4c(s3)CNCC4)c2C)c1F` and `COc1cc(OC)cc(-c2cccc(-c3nc4c(s3)CNCC4)c2C)c1` cannot be ordered by IC50: at most 100 nM for the first, at most 100 nM for the second.

`Cc1c(-c2ccccc2)ccnc1-c1nc2c(s1)CNCC2` and `COc1cccc(-c2ccnc(-c3nc4c(s3)CNCC4)c2C)c1` cannot be ordered by IC50: at most 100 nM for the first, at most 100 nM for the second.

`Cc1c(-c2ccccc2)cccc1-c1nc2cc(CNCCO)c(OCCN3CCOCC3)cc2o1` and `Cc1c(-c2ccccc2)cccc1-c1nc2cc(CNCCO)c(OCc3ccccn3)cc2o1` cannot be ordered by IC50: at most 10 nM for the first, at most 10 nM for the second.

`Cc1cc(C(=O)Nc2cc(F)cc(-c3ccc4c(c3)OCCO4)c2C)ncc1CNCCO` and `Cc1c(-c2ccc3c(c2)OCCO3)cccc1-c1nc2cc(CNCCO)cc(C)c2o1` cannot be ordered by IC50: at most 10 nM for the first, at most 10 nM for the second.

`COc1cccc(-c2cccc(NC(=O)c3cn4c(n3)CNCC4)c2C#N)c1F` and `COc1cccc(-c2cccc(NC(=O)c3nc4c(n3C)CCNC4)c2C#N)c1F` cannot be ordered by IC50: at most 100 nM for the first, at most 100 nM for the second.

`N#Cc1c(NC(=O)c2nc3c(s2)CNCC3)cccc1-c1ccccc1` and `N#Cc1c(NC(=O)c2nc3c(s2)CNCC3)cccc1-c1ccccc1Cl` cannot be ordered by IC50: at most 100 nM for the first, at most 100 nM for the second.

`Cc1c(NC(=O)c2nc3c(s2)CN(CC(=O)O)CC3)cccc1-c1ccccc1` and `Cc1c(NC(=O)c2nc3c(s2)CN(CCO)CC3)cccc1-c1ccccc1` cannot be ordered by IC50: at most 100 nM for the first, at most 100 nM for the second.

`Cn1ncc2c(-c3cccc(NC(=O)c4nc5c(s4)CNCC5)c3Cl)cccc21` and `Cn1ncc2c(-c3cccc(NC(=O)c4nc5c(s4)CNCC5)c3C#N)cccc21` cannot be ordered by IC50: at most 100 nM for the first, at most 100 nM for the second.

`N#Cc1c(NC(=O)c2ccc(CNCCO)cn2)cccc1C1=CCCCC1` and `COc1cccc(-c2cccc(NC(=O)c3nc4c(s3)CNCC4)c2C#N)c1` cannot be ordered by IC50: at most 10 nM for the first, at most 100 nM for the second.

`N#Cc1c(-c2ccc3c(c2)OCCO3)cccc1-c1nc2c(Cl)cc(CNCCO)cn2n1` and `N#Cc1c(-c2ccc3c(c2)OCCO3)cccc1-c1nc2c(C#N)cc(CNCCO)cn2n1` cannot be ordered by IC50: at most 100 nM for the first, at most 100 nM for the second.

`Cc1cc(CNCCO)cc2nc(-c3cccc(-c4ccc5c(c4)OCCO5)c3C#N)oc12` and `Cc1cc(CNCCO)cc2nc(-c3cccc(-c4ccccc4)c3C#N)oc12` cannot be ordered by IC50: at most 10 nM for the first, at most 10 nM for the second.

`N#CCc1cc(CNCCO)cn2nc(-c3cccc(-c4ccc5c(c4)OCCO5)c3C#N)nc12` and `Cc1c(-c2ccccc2)cccc1-c1nc2c(CC#N)cc(CNCCO)cn2n1` cannot be ordered by IC50: at most 100 nM for the first, at most 100 nM for the second.

`Cc1c(-c2ccccc2)cccc1-c1nc2c(s1)CN(CCCC(=O)O)CC2` and `Cc1c(-c2ccccc2)cccc1-c1nc2c(s1)CN(CCO)CC2` cannot be ordered by IC50: at most 100 nM for the first, at most 100 nM for the second.

`COc1cccc(-c2cccc(NC(=O)c3nc4c(s3)CNCC4)c2C#N)c1F` and `COc1cc(F)cc(-c2cccc(NC(=O)c3nc4c(s3)CNCC4)c2C#N)c1` cannot be ordered by IC50: at most 100 nM for the first, at most 100 nM for the second.

`Cc1c(-c2ccc3c(c2)OCCO3)ccnc1-c1nc2c(s1)CNCC2` and `Cc1c(-c2nc3c(s2)CNCC3)cccc1-c1cccc2c1cnn2C` cannot be ordered by IC50: at most 100 nM for the first, at most 100 nM for the second.

`Cc1c(-c2ccccc2)cccc1-c1nc2c(CCCC#N)cc(CNCCO)cn2n1` and `Cc1c(-c2ccccc2)cccc1-c1nc2c(Cl)cc(CNCCO)cn2n1` cannot be ordered by IC50: at most 100 nM for the first, at most 100 nM for the second.

`COc1c(CNCCO)cnc2c(Nc3cccc(-c4ccccc4)c3C)nccc12` and `Cc1c(Nc2nccc3c(CNCCO)ccnc23)cccc1-c1ccc2c(c1)OCCO2` cannot be ordered by IC50: at most 10 nM for the first, at most 10 nM for the second.

`Cc1c(-c2nc3cc(CNCCO)c(OCC#N)cc3o2)cccc1-c1ccccc1F` and `Cc1c(-c2ccc3c(c2)OCCO3)cccc1-c1nc2cc(CN3CCCC[C@H]3C(=O)O)c(OCC#N)cc2o1` cannot be ordered by IC50: at most 10 nM for the first, at most 10 nM for the second.

`COc1cccc(-c2cccc(NC(=O)c3nc4c(n3C)CCNC4)c2C)c1F` and `COc1cccc(-c2cccc(NC(=O)c3nc4c(n3C)CCN(CCO)C4)c2C#N)c1F` cannot be ordered by IC50: at most 100 nM for the first, at most 100 nM for the second.

`Cc1c(-c2ccccc2)cccc1-c1nc2cc(CNCCO)nc(C)n2n1` and `Cc1c(-c2ccccc2)cccc1-c1nc2c(s1)CN(C[C@H](C)O)CC2` cannot be ordered by IC50: at most 100 nM for the first, at most 100 nM for the second.

`Cc1c(-c2ccccc2)ccnc1-c1nc2c(s1)CN(C1CCC(C(=O)O)CC1)CC2` (configuration not stated) gave an IC50 of at most 100 nM.
